Test results as given in paper PMC7827406, “Structure–Activity Relationship (SAR) Study of Spautin-1 to Entail the Discovery of Novel NEK4 Inhibitors” (International Journal of Molecular Sciences, 2021).
Where two headings read alike, the source gives them in different places.

Experiments:
Assay in all cases: biochemical
Design in all cases: Eurofins KinaseProfiler full panel at Km ATP, residual kinase activity (%) relative to DMSO
Rsk3(h) = molecular target: T1, Rsk3(h) (Homo sapiens, UniProt Q15349)
T1 construct: gene RPS6KA2
Summary of the method: (§1)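 Compounds screened at 10 µM in radiometric kinase activity assays at Km ATP, reported as remaining kinase activity (%). A KINOMEscan competition-binding screen at 10 µM measured DNA-tagged kinase retained on immobilized active-site ligand by qPCR.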

MST1(h) = molecular target: T2, MST1(h) (Homo sapiens, UniProt Q13043)
T2 construct: gene STK4
T2 sequence (Q13043 1-487): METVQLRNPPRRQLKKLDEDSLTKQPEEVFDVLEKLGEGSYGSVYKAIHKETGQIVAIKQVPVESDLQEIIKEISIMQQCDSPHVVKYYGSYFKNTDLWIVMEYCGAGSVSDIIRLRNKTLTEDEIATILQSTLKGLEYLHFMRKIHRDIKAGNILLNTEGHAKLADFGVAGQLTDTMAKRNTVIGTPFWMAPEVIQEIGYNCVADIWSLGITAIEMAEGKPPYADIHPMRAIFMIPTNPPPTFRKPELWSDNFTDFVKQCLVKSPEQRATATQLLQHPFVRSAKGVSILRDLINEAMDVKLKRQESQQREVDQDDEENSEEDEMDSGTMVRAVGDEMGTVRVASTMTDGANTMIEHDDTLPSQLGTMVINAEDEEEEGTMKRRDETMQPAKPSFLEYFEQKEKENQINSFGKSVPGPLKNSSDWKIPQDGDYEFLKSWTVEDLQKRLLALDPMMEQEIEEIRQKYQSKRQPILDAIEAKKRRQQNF
Summary of the method: as §1

PKA(h) = molecular target: T3, PKA(h) (Homo sapiens, UniProt P17612)
T3 construct: gene PRKACA
Summary of the method: as §1

CDK2/cyclinE(h) = CDK2/cyclinE(h) (Homo sapiens, UniProt P24941)
Summary of the method: as §1

TSSK1(h) = molecular target: T4, TSSK1(h) (Homo sapiens, UniProt Q9BXA7)
T4 construct: gene TSSK1B
T4 sequence (Q9BXA7 1-367): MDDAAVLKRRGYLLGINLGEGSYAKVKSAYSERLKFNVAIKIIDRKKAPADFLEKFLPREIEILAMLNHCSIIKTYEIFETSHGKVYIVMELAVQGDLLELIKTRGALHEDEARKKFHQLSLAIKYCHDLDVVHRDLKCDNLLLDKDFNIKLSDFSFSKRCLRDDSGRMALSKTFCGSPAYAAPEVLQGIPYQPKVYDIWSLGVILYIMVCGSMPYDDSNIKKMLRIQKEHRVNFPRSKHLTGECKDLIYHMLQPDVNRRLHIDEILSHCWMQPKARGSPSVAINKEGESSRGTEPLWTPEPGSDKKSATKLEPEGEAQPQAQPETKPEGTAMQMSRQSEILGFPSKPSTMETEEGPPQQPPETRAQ
Summary of the method: as §1

MKK3(h) = molecular target: T5, MKK3(h) (Homo sapiens, UniProt P46734)
T5 construct: gene MAP2K3
T5 sequence (P46734 1-347): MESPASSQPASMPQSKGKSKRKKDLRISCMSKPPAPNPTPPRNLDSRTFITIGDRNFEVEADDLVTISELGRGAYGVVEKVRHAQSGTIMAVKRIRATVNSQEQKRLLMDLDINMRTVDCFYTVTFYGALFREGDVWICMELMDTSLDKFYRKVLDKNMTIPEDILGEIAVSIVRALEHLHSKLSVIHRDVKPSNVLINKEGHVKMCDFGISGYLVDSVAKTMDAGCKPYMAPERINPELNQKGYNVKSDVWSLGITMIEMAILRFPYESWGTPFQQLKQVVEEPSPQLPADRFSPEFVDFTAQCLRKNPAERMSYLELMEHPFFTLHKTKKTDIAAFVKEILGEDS
Summary of the method: as §1

IGF-1R(h) = molecular target: T6, IGF-1R(h) (Homo sapiens, UniProt P08069)
T6 construct: gene IGF1R
Summary of the method: as §1

DAPK2(h) = DAPK2(h) (Homo sapiens, UniProt Q9UIK4)
Summary of the method: as §1

CK1ε(h) = molecular target: T7, CK1ε(h) (Homo sapiens, UniProt P49674)
T7 construct: gene CSNK1E
Summary of the method: as §1

PDGFRβ(h) = molecular target: T8, PDGFRβ(h) (Homo sapiens, UniProt P09619)
T8 construct: gene PDGFRB
Summary of the method: as §1

[1] = read-out: Residual activity (%) Spautin-1 5aa
[2] = read-out: Residual activity (%) 5as
[3] = read-out: Residual activity (%) 5at
[4] = read-out: Residual activity (%) 5ay

T1 sequence (Q15349 whole entry): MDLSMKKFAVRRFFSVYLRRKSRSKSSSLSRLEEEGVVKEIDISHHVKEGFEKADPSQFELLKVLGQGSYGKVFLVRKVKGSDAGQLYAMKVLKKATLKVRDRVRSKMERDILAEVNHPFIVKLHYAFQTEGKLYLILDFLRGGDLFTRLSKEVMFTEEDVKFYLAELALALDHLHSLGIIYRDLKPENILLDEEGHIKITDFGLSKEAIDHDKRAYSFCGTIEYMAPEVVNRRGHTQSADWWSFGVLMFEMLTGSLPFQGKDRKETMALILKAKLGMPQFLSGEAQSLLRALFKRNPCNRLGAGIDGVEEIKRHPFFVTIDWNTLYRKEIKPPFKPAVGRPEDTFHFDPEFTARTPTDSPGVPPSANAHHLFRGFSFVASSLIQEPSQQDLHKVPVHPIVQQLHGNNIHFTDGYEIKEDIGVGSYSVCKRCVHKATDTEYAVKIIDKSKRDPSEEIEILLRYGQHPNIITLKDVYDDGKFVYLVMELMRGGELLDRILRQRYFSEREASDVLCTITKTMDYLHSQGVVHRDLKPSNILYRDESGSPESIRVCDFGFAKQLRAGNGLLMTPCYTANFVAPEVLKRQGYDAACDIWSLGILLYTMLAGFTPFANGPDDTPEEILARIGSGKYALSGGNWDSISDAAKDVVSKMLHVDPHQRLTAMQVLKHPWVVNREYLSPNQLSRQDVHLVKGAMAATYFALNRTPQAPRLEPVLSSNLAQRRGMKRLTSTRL
T6 sequence (P08069 whole entry): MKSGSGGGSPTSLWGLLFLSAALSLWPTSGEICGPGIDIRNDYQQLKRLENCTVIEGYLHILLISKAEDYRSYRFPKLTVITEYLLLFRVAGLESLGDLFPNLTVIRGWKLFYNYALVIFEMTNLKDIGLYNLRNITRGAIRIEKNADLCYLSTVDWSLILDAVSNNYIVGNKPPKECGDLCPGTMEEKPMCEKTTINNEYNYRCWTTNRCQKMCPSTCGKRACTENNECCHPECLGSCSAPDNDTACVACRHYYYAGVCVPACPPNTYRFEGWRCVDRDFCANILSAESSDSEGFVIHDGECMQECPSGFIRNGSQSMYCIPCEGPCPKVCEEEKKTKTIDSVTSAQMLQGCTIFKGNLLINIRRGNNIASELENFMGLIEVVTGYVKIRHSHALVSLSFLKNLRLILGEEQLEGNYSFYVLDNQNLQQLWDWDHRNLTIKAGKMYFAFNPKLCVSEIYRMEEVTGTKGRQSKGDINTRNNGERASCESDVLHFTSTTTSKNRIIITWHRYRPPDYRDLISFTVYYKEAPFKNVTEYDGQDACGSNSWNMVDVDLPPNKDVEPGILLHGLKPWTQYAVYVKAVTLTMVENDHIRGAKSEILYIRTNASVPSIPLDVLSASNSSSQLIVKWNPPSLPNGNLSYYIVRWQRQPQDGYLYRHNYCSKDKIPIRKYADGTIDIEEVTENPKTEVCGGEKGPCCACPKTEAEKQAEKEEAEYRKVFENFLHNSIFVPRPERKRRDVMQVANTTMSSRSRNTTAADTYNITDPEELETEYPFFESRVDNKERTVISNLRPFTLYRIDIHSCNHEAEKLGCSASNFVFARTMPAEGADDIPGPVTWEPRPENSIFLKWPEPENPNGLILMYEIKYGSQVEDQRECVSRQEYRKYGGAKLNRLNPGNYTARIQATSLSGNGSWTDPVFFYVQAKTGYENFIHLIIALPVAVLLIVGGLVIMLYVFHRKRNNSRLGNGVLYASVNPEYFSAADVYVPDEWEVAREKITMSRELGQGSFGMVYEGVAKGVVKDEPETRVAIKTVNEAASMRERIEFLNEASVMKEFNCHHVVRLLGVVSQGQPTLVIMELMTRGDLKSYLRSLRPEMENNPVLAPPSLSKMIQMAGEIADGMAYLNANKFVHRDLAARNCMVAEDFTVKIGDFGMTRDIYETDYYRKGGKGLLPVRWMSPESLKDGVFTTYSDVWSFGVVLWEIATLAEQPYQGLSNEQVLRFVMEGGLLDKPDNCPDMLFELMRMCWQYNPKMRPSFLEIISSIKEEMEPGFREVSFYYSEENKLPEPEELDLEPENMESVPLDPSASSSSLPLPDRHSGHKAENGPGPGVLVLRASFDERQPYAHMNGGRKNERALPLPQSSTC
T7 sequence (P49674 whole entry): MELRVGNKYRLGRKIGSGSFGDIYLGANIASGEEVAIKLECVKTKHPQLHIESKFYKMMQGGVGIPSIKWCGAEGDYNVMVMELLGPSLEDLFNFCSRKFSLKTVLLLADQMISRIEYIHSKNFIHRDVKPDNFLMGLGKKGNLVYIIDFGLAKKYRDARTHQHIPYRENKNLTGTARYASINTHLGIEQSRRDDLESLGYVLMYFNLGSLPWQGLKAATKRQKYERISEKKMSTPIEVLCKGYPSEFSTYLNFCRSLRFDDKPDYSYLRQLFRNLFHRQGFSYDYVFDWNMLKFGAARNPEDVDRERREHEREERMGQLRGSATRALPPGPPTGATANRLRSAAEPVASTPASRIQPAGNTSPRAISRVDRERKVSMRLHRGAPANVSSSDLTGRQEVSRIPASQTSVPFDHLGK
T8 sequence (P09619 whole entry): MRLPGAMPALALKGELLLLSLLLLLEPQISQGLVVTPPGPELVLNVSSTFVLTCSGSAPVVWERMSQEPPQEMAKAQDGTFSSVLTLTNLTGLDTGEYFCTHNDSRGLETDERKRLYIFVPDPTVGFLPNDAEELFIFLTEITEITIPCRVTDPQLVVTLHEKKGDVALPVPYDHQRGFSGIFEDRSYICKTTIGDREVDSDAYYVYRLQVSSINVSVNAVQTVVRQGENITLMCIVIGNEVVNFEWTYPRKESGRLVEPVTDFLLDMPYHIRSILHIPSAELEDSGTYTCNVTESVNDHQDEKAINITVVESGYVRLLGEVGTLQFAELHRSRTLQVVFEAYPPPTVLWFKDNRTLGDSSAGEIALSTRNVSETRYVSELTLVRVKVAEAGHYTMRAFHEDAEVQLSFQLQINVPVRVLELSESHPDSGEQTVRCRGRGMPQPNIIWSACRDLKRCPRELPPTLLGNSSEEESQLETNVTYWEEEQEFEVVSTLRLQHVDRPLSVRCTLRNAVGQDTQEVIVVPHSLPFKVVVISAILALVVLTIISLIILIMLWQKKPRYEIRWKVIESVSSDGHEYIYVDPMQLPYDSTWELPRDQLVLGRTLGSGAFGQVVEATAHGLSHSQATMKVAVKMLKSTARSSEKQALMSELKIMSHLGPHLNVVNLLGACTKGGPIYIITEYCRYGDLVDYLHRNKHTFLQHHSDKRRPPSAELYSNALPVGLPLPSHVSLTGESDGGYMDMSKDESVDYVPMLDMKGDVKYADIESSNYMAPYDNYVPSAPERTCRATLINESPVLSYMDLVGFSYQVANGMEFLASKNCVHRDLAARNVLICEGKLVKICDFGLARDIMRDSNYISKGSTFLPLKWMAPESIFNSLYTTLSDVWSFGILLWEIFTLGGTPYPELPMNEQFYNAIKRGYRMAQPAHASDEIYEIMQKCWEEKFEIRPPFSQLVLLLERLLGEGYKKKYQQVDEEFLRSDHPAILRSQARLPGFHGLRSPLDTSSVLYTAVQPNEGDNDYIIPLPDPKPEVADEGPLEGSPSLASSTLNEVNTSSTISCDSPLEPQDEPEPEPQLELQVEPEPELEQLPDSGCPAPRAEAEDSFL
DAPK2(h), sequence (Q9UIK4 whole entry): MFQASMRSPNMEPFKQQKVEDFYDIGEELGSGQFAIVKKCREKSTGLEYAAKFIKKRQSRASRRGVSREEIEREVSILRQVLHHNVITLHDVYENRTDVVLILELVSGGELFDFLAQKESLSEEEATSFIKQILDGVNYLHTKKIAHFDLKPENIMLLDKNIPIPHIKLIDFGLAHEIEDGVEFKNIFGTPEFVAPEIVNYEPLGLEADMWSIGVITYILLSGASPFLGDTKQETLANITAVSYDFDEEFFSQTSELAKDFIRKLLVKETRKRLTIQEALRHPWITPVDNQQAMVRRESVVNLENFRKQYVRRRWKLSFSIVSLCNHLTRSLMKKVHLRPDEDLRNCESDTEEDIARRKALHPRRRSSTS

Q: How did the remaining activity at 10 µM (Rsk3(h); [1]) turn out when `Fc1ccc(CNc2ncnc3ccc(F)cc23)cc1` [5aa, 6-Fluoro-N-(4-fluorobenzyl)-4-Quinazolinamine] was run?
A: Its remaining activity at 10 µM is 126%.

Q: What about the remaining activity at 10 µM (MST1(h); [1]) of the same compound?
A: The remaining activity at 10 µM was 91%.

Q: And the remaining activity at 10 µM (PKA(h); [1])?
A: Its remaining activity at 10 µM is 103%.

Q: What about the remaining activity at 10 µM (CDK2/cyclinE(h); [1]) of the same compound?
A: Its remaining activity at 10 µM is 69%.

Q: And the remaining activity at 10 µM (TSSK1(h); [1])?
A: Its remaining activity at 10 µM is 82%.

Q: And the remaining activity at 10 µM (MKK3(h); [1])?
A: The remaining activity at 10 µM was 101%.

Q: And the remaining activity at 10 µM (IGF-1R(h); [1])?
A: Its remaining activity at 10 µM is 90%.

Q: And the remaining activity at 10 µM (DAPK2(h); [1])?
A: Its remaining activity at 10 µM is 94%.

Q: And the remaining activity at 10 µM (CK1ε(h); [1])?
A: The remaining activity at 10 µM was 87%.

Q: What about the remaining activity at 10 µM (PDGFRβ(h); [1]) of the same compound?
A: The remaining activity at 10 µM was 97%.

Q: How did the remaining activity at 10 µM (Rsk3(h); [2]) turn out when `Fc1ccc(CCNc2ncnc3ccc(F)cc23)cc1` [5as, 6-Fluoro-N-[2-(4-Fluorophenyl)Ethyl]-4-Quinazolinamine] was run?
A: The remaining activity at 10 µM was 108%.

Q: What about the remaining activity at 10 µM (MST1(h); [2]) of the same compound?
A: The remaining activity at 10 µM was 78%.

Q: And the remaining activity at 10 µM (PKA(h); [2])?
A: Its remaining activity at 10 µM is 101%.

Q: And the remaining activity at 10 µM (CDK2/cyclinE(h); [2])?
A: Its remaining activity at 10 µM is 103%.

Q: What about the remaining activity at 10 µM (TSSK1(h); [2]) of the same compound?
A: Its remaining activity at 10 µM is 82%.

Q: What about the remaining activity at 10 µM (MKK3(h); [2]) of the same compound?
A: The remaining activity at 10 µM was 82%.

Q: What about the remaining activity at 10 µM (IGF-1R(h); [2]) of the same compound?
A: The remaining activity at 10 µM was 83%.

Q: And the remaining activity at 10 µM (DAPK2(h); [2])?
A: Its remaining activity at 10 µM is 100%.

Q: What about the remaining activity at 10 µM (CK1ε(h); [2]) of the same compound?
A: The remaining activity at 10 µM was 76%.

Q: And the remaining activity at 10 µM (PDGFRβ(h); [2])?
A: The remaining activity at 10 µM was 104%.

Q: What does the source list for `Fc1ccc2ncnc(NCCc3ccc(Cl)cc3)c2c1` [5at, N-[2-(4-Chlorophenyl)Ethyl]-6-Fluoro-4-Quinazolinamine]?
A: remaining activity at 10 µM (Rsk3(h); [3]): 111%; remaining activity at 10 µM (MST1(h); [3]): 97%; remaining activity at 10 µM (PKA(h); [3]): 106%; remaining activity at 10 µM (CDK2/cyclinE(h); [3]): 54%; remaining activity at 10 µM (TSSK1(h); [3]): 77%; remaining activity at 10 µM (MKK3(h); [3]): 86%; remaining activity at 10 µM (IGF-1R(h); [3]): 83%; remaining activity at 10 µM (DAPK2(h); [3]): 101%; remaining activity at 10 µM (CK1ε(h); [3]): 82%; remaining activity at 10 µM (PDGFRβ(h); [3]): 109%

Q: Which remaining activity at 10 µM (Rsk3(h); [4]) does the source give for `COc1ccc2ncnc(Nc3cccc(F)c3)c2c1` [5ay, N-(3-Fluorophenyl)-6-Methoxy-4-Quinazolinamine] here?
A: The remaining activity at 10 µM was 87%.

Q: What about the remaining activity at 10 µM (MST1(h); [4]) of the same compound?
A: The remaining activity at 10 µM was 70%.

Q: What about the remaining activity at 10 µM (PKA(h); [4]) of the same compound?
A: The remaining activity at 10 µM was 97%.

Q: What about the remaining activity at 10 µM (CDK2/cyclinE(h); [4]) of the same compound?
A: The remaining activity at 10 µM was 89%.

Q: What about the remaining activity at 10 µM (TSSK1(h); [4]) of the same compound?
A: Its remaining activity at 10 µM is 81%.

Q: What about the remaining activity at 10 µM (MKK3(h); [4]) of the same compound?
A: Its remaining activity at 10 µM is 105%.

Q: And the remaining activity at 10 µM (IGF-1R(h); [4])?
A: Its remaining activity at 10 µM is 101%.

Q: And the remaining activity at 10 µM (DAPK2(h); [4])?
A: Its remaining activity at 10 µM is 91%.

Q: What about the remaining activity at 10 µM (CK1ε(h); [4]) of the same compound?
A: Its remaining activity at 10 µM is 78%.

Q: What about the remaining activity at 10 µM (PDGFRβ(h); [4]) of the same compound?
A: The remaining activity at 10 µM was 113%.
